Experimental data from patent publication US20200054555A1, “CONTACT LENS WITH FUNCTIONAL COMPONENTS AND PRODUCTS THEREOF” (UNICON OPTICAL CO., LTD., priority 2018, published 2020).

Test: accumulated release of functional components from the contact lens over time, detected by high performance liquid chromatography
Type: physicochemical
Conditions: with a cyclic oligosaccharide or cyclic polysaccharide
Protocol: Further, the present invention uses high performance liquid chromatography to detect accumulation of the released functional components of the contact lens with increasing time. It is learned from FIG. 2: the contact lens of the present invention, which is a HEMA lens made up of 38% water by weight and a cyclic oligosaccharide or cyclic polysaccharide, can persistently release Vitamin B12 for a longer period of time (more than 12 hours). It is learned from FIG. 3: the contact lens of the present invention, which is an organosilicon hydrogel contact lens made up of 43% water by weight and a cyclic oligosaccharide or cyclic polysaccharide, can persistently release Vitamin B12 for a longer period of time (more than 12 hours). It is learned from FIG. 4: the contact lens of the present invention, which contains HEMA and 38% water by weight and a cyclic oligosaccharide or cyclic polysaccharide, can persistently release curcumin for a longer period of time (more than 20 hours). It is learned from FIG. 5: the contact lens of the present invention, which contains HEMA and 38% water by weight and a cyclic oligosaccharide or cyclic polysaccharide, can persistently release quercetin in a longer time interval (more than 20 hours). It is learned from FIG. 6: the contact lens of the present invention, which is made from HEMA and 38% water by weight, and a cyclic oligosaccharide or cyclic polysaccharide, can persistently release xanthophyll for a longer period of time (more than 30 hours).

[1] = HEMA contact lens, 38% water by weight, FIG. 2, 4, 5, 6

period of persistent release of the functional component from the contact lens (organosilicon hydrogel contact lens, 43% water by weight, FIG. 3) | Substance | period of persistent release of the functional component from the contact lens [1]
more than 12 hours | Vitamin B12 | more than 12 hours
– | xanthophyll | more than 30 hours
